The subject of one assay is NCI-H1299. As to the kind of experiment: Anticancer activity against human NCI-H1299 cells at 100 uM relative to control. In kind it is functional.
For the next assay, the system named is HCT-116. As to the kind of experiment: Anticancer activity against human HCT-116 cells at 100 uM relative to control. Format: functional.
A further assay relates to PC-3. Put plainly: Anticancer activity against human PC-3 cells at 100 uM relative to control. In kind it is functional.
Another assay has as its system MDA-MB-231. As to the kind of experiment: Antiproliferative activity against human MDA-MB-231 cells assessed as reduction in cell viability after 48 hrs by SRB assay. Format: functional, cell-based. To be noted: MDA-MB-231, 48 h. A general note: The SRB assay estimates cell density from bound dye.
Assay [1] can be described thus: Antiproliferative activity against human IGR-39 cells assessed as reduction in cell viability after 48 hrs by SRB assay. Format: functional, cell-based. To be noted: IGR-39, 48 h.

Molecules are shown by their SMILES.

One may read the inhibition as the relative decrease from the control value, in per cent. Low readings indicate a weak effect, high ones a strong effect. Regarding `O=C(CS(=O)(=O)NS(=O)(=O)CC(=O)Nc1nc(-c2ccc(Cl)cc2)c[nH]1)Nc1nc(-c2ccc(Cl)cc2)c[nH]1`, the figures for the inhibition at 100 µM in the assay on NCI-H1299, in the assay on HCT-116 and with PC-3 were 21.4%, 41.4% and 32.1%, respectively.
Broadly, the EC50 is the concentration at which the effect is half-maximal. As to `CCn1c(-c2ccc(F)cc2)cn(-c2cccc(S(N)(=O)=O)c2)c1=O`, the concentration giving a half-maximal response (EC50) in the assay on MDA-MB-231 is 20.5 µM; in assay [1], 27.8 µM.

For the origin of these results see ChEMBL document CHEMBL6074649, “An insight into recent developments in imidazole based heterocyclic compounds as anticancer agents: Synthesis, SARs, and mechanism of actions” (Eur J Med Chem, 2024).
